Data from patent US6455540B1, “Methods of use of quinolone compounds against anaerobic pathogenic bacteria” (priority 1999, dated 2002).
Values after ≈ are worked out from the molar mass of the structure shown.

Assays:
[1] = tested on: Peptostreptococcus magnus; assay: Agar dilution MIC; format: cell-based; conditions: Finegoldia magna
Prevotella bivia = assay: Agar dilution MIC; format: cell-based
Bilophila wadsworthia = assay: Agar dilution MIC; format: cell-based
Actinomyces israelii = assay: Agar dilution MIC; format: cell-based
clostridial isolates = conditions: cited from earlier work
[2] = tested on: Anaerobiospirillum thomasii; assay: Agar dilution MIC; format: cell-based
Bacteroides ureolyticus = assay: Agar dilution MIC; format: cell-based
[3] = tested on: Fusobacterium spp. group 2; assay: Agar dilution MIC; format: cell-based, Fusobacterium mortiferum, necrogenes, ulcerans; conditions: Fusobacterium
[4] = tested on: Peptostreptococcus prevotii; assay: Agar dilution MIC; format: cell-based
Prevotella intermedia = assay: Agar dilution MIC; format: cell-based
Fusobacterium varium = assay: Agar dilution MIC; format: cell-based
Porphyromonas gingivalis = assay: Agar dilution MIC; format: cell-based; conditions: Porphyromonas gingivalis
[5] = tested on: Actinomyces odontolyticus; assay: Agar dilution MIC; format: cell-based
[6] = tested on: Fusobacterium spp group 1; assay: Agar dilution MIC; format: cell-based
Porphyromonas spp. = assay: Agar dilution MIC; format: cell-based, Porphyromonas cangingivalis, cansulci, circumdentaria, levii
[7] = tested on: Prevotella melaninogenica; assay: Agar dilution MIC; format: cell-based
Clostridium dfficile = assay: Agar dilution MIC; format: cell-based, Clostridium difficile
Porphyromonas macaccae = assay: Agar dilution MIC; format: cell-based
Bacteroides gracilis = assay: Agar dilution MIC; format: cell-based, Bacteroides gracilis (Campylobacter gracilis); conditions: 11 isolates
[8] = read-out: Minimal Inhibitory Concentration 50% (MIC50)
[9] = 13 isolates, read-out: Minimal Inhibitory Concentration 90% (MIC90)
[10] = Porphyromonas, read-out: Minimal Inhibitory Concentration 50% (MIC50)

Compound: CO/N=C1\CN(c2nc3c(cc2F)c(=O)c(C(=O)O)cn3C2CC2)CC1CN (racemic) [Gemifloxacin, (R,S)-7-(3-aminomethyl-4-methoxyiminopyrrolidin-1-yl)-1-cyclopropyl-6-fluoro-4-oxo-1,4-dihydro-1,8-naphthyridine-3-carboxylic acid]
- MIC50 [1, 8]: 0.03 µg/mL (≈ 0.077 µM)
- MIC90 [1, 9]: 0.06 µg/mL (≈ 0.154 µM)
- Minimal Inhibitory Concentration 90% (MIC90) (Prevotella bivia; 21 isolates): 8 µg/mL
- MIC90 (Prevotella bivia; Prevotella bivia, 21 isolates, read-out: Minimal Inhibitory Concentration 90% (MIC90)): ≥ 4 µg/mL
- MIC50 (Prevotella bivia; Prevotella bivia, read-out: Minimal Inhibitory Concentration 50% (MIC50)): 8 µg/mL (≈ 20.5 µM)
- Minimal Inhibitory Concentration 90% (MIC90) (Bilophila wadsworthia; 16 isolates, agar supplemented with pyruvate): 4 µg/mL
- MIC90 (Bilophila wadsworthia; Bilophila wadsworthia, 16 isolates, agar supplemented with pyruvate, read-out: Minimal Inhibitory Concentration 90% (MIC90)): ≥ 4 µg/mL
- MIC50 (Bilophila wadsworthia; Bilophila wadsworthia, read-out: Minimal Inhibitory Concentration 50% (MIC50)): 0.25 µg/mL (≈ 0.642 µM)
- Minimal Inhibitory Concentration Range (Actinomyces israelii; 6 isolates): 0.5 to 2 µg/mL
- MIC50 (Actinomyces israelii; Actinomyces israelii, read-out: Minimal Inhibitory Concentration 50% (MIC50)): 1 µg/mL (≈ 2.57 µM)
- MIC90 (Actinomyces israelii; Actinomyces israelii, stated in text only): ≤ 2 µg/mL
- maximum MIC (clostridial isolates; Cormicon and Jones, ten clostridial isolates): 2 µg/mL
- concentration to which all isolates were susceptible (MIC) (clostridial isolates; Marco, et al., 19 unspecieted clostridial isolates): ≤ 2 µg/mL
- Minimal Inhibitory Concentration Range ([2]; 13 isolates): 0.06 to 0.25 µg/mL
- MIC50 ([2]; Anaerobiospirillum thomasii, read-out: Minimal Inhibitory Concentration 50% (MIC50)): 0.125 µg/mL (≈ 0.321 µM)
- MIC90 ([2]; Anaerobiospirillum thomasii, 13 isolates, read-out: Minimal Inhibitory Concentration 90% (MIC90)): 0.125 µg/mL (≈ 0.321 µM)
- Minimal Inhibitory Concentration 90% (MIC90) (Bacteroides ureolyticus; 17 isolates): 2 µg/mL
- MIC90 (Bacteroides ureolyticus; Campylobacter ureolyticus, 17 isolates, read-out: Minimal Inhibitory Concentration 90% (MIC90)): ≤ 2 µg/mL
- MIC50 (Bacteroides ureolyticus; Campylobacter ureolyticus, read-out: Minimal Inhibitory Concentration 50% (MIC50)): ≤ 0.015 µg/mL
- MIC50 [3, 8]: 4 µg/mL (≈ 10.3 µM)
- MIC90 ([3]; 12 isolates, read-out: Minimal Inhibitory Concentration 90% (MIC90)): 4 µg/mL (≈ 10.3 µM)
- Minimal Inhibitory Concentration Range ([4]; 9 isolates): 0.06 to 0.25 µg/mL
- MIC50 ([4]; Anaerococcus prevotii, read-out: Minimal Inhibitory Concentration 50% (MIC50)): 0.125 µg/mL (≈ 0.321 µM)
- Minimal Inhibitory Concentration 90% (MIC90) (Prevotella intermedia; 11 isolates): 0.5 µg/mL
- Minimal Inhibitory Concentration Range (Prevotella intermedia; 11 isolates): 0.06 to 1 µg/mL
- Minimal Inhibitory Concentration 90% (MIC90) (Prevotella intermedia; 11 isolates, listed as gemifloxacin): ≤ 2 µg/mL
- MIC50 (Prevotella intermedia; Prevotella intermedia, read-out: Minimal Inhibitory Concentration 50% (MIC50)): 0.25 µg/mL (≈ 0.642 µM)
- susceptibility pattern of strains (Fusobacterium varium): bimodal pattern
- MIC50 (Fusobacterium varium; Fusobacterium varium, read-out: Minimal Inhibitory Concentration 50% (MIC50)): > 8 µg/mL
- MIC90 (Fusobacterium varium; Fusobacterium varium, 17 isolates, read-out: Minimal Inhibitory Concentration 90% (MIC90)): > 8 µg/mL
- MIC50 (Porphyromonas gingivalis; [8]): 0.06 µg/mL (≈ 0.154 µM)
- MIC90 (Porphyromonas gingivalis; [9]): 0.125 µg/mL (≈ 0.321 µM)
- Minimal Inhibitory Concentration 90% (MIC90) ([5]; 10 isolates): 2 µg/mL
- Minimal Inhibitory Concentration Range ([5]; 10 isolates): 1 to 2 µg/mL
- MIC90 ([5]; Schaalia odontolytica, 10 isolates, read-out: Minimal Inhibitory Concentration 90% (MIC90)): ≤ 2 µg/mL
- MIC50 ([5]; Schaalia odontolytica, read-out: Minimal Inhibitory Concentration 50% (MIC50)): 2 µg/mL (≈ 5.14 µM)
- Minimal Inhibitory Concentration Range ([6]; 19 isolates): 0.06 to 8 µg/mL
- MIC50 ([6]; Fusobacterium, GROUP1, read-out: Minimal Inhibitory Concentration 50% (MIC50)): 0.25 µg/mL (≈ 0.642 µM)
- MIC90 ([6]; Fusobacterium, GROUP1, 19 isolates, read-out: Minimal Inhibitory Concentration 90% (MIC90)): 8 µg/mL (≈ 20.5 µM)
- Minimal Inhibitory Concentration Range (Porphyromonas spp.; 11 isolates): 0.06 to 0.125 µg/mL
- MIC50 (Porphyromonas spp.; [10]): 0.06 µg/mL (≈ 0.154 µM)
- MIC90 (Porphyromonas spp.; Porphyromonas, 11 isolates, read-out: Minimal Inhibitory Concentration 90% (MIC90)): 0.125 µg/mL (≈ 0.321 µM)
- Minimal Inhibitory Concentration 90% (MIC90) ([7]; 12 isolates): 8 µg/mL
- MIC90 ([7]; Prevotella melaninogenica, 12 isolates, read-out: Minimal Inhibitory Concentration 90% (MIC90)): ≥ 4 µg/mL
- MIC50 ([7]; Prevotella melaninogenica, read-out: Minimal Inhibitory Concentration 50% (MIC50)): 1 µg/mL (≈ 2.57 µM)
- susceptibility to gemifloxacin (Clostridium dfficile): often resistant
- Minimal Inhibitory Concentration 90% (MIC90) (Clostridium dfficile; 14 isolates): >8 µg/mL
- MIC50 (Clostridium dfficile; Clostridium, read-out: Minimal Inhibitory Concentration 50% (MIC50)): 2 µg/mL (≈ 5.14 µM)
- MIC90 (Clostridium dfficile; Clostridium, read-out: Minimal Inhibitory Concentration 90% (MIC90), 14 isolates): ≥ 4 µg/mL
- Minimal Inhibitory Concentration Range (Porphyromonas macaccae; 13 isolates): 0.03 to 0.125 µg/mL
- MIC50 (Porphyromonas macaccae; [10]): 0.06 µg/mL (≈ 0.154 µM)
- MIC90 (Porphyromonas macaccae; Porphyromonas, 13 isolates, read-out: Minimal Inhibitory Concentration 90% (MIC90)): 0.125 µg/mL (≈ 0.321 µM)
- Minimal Inhibitory Concentration 90% (MIC90) (Bacteroides gracilis): 1 µg/mL
